# Measurements: patent US20220177841A1, “EX VIVO METHODS FOR PRODUCING A T CELL THERAPEUTIC AND RELATED COMPOSITIONS AND METHODS” (Myst Therapeutics LLC, priority 2019, published 2022)
# Entries after “also recorded” stand apart in the source; their conditions may differ. Peptide text beside a SMILES is read from it. * marks the point of attachment. Cbz = O=C(OCc1ccccc1)*; CH2F = FC*
# Legend:
# [1] = tested on: PBMC from three healthy donors; assay: T cell expansion with Fas ligand or caspase inhibition, anti-CD3 stimulation; format: cell-based, human; conditions: OKT3 activation, caspase inhibitor 2 μM present continuously, replenished each media exchange
# Description: (§1) Apoptotic inhibitors directed against Fas- and caspase-mediated pathways were assessed to determine effects on tumor reactive T cells during manufacturing. The studies were carried out in healthy donors, and thus, stimulation of the T cells were carried out with anti-CD3 (OKT3) or anti-CD3/anti-CD28 stimulation in order to mimic conditions present in the tumor microenvironment (TME). Constant activation signals present in the tumor microenvironment, as can be stimulated by anti-CD3 or anti-CD3/anti-CD28 activation can be detrimental to T cell growth. Cellular viability and projected cell numbers were used to compare the impact of modulation of apoptotic pathways in both a transient and a continuous activation assay, the latter of which more closely recapitulates the tumor microenvironment.
# Immune Cell Serum Replacement (ThermoFisher) at 5%, and a final concentration of 2.0 mM of a L-alanyl-L-glutamine dipeptide form of glutamine (GlutaMAX Supplement; Thermofisher). Cells were then seeded into a 24-well gas permeable cell culture plate at a density of 2.14×10^5 cells/mL (7.5×10^5 cells/cm^2). […]
# Cultures were maintained for at least 13 days with a 50% media exchange every other day beginning on culture day 2. Cell counts and viability were monitored every other day. […]
# [2] = tested on: expanded human T cells from three healthy donors; assay: T cell adjuvant high throughput screen, total viable CD3+ cell count; format: cell-based; conditions: 6 days; for total viable CD3+ cell count compared with DMSO treatment control: 10 μg/mL antibodies, 25 μM Z-VAD-FMK, irrespective of activation status (with or without OKT3)
# Description: Cells were expanded from PBMC derived from Ficoll gradient separation from three healthy donor's apheresis material. […] Cells were next seeded into gas permeable 100M culture vessels and expanded for 7-14 days to achieve a large bank of T cells, and cryopreserved. […] Half of wells were additionally supplemented with 50 ng/mL OKT3, a human anti-CD3 monoclonal antibody. In total, 15 test adjuvant agents were tested for their impact on cell viability in the presence and absence of anti-CD3 activation (see Table E3). Cells were cultured for 6 days total, including a 50% medium exchange on culture day 3, and monitored for total viable CD3+ cell count.
# Total viable CD3+ cell count for cells grown in the absence and presence of OKT3 stimulation are shown in FIGS. 27A-C and FIGS. 28A-C, respectively. The results shown are for the following concentrations of adjuvant: 10 μg/mL for tested antibodies (Tavolixizumab, Oxelumab, Ipilimumab, Tocilizumab, Urelumab, Pembrolizumab, Varlilumab, anti-GITR MK-1248, anto-human FasL); 25 μM for Z-VAD-FMK pan-caspase inhibitor; 250 nM for HSP inhibitor NVP-HSP990; and 1000 IU/mL for cytokine (IL-7, IL-15 or IL-21).
# [3] = tested on: CRC tumor fragment and SCS cultures; assay: Caspase inhibition in tumor processing, fragment or SCS cultures; format: cell-based, human
# Description: Half of cultures contained media additionally supplemented with 2 μM of pan-caspase inhibitor Z-VAD-FMK which was replenished at each media exchange. Cultures were incubated at about 37° C. for a minimum of 18 days with a 50% medium exchange occurring every 2-3 days following culture day 5. Cell counts were performed on day 5 and at each medium exchange using the NC-200 Automated Cell Counter (ChemoMetec).
# [4] = tested on: PBMC from two healthy donors; assay: T cell expansion with Fas ligand or caspase inhibition, anti-CD3/anti-CD28 stimulation (transient or continuous activation); format: cell-based, human; conditions: 2 μM
# Description: as §1
# Cells were then seeded into a 24-well gas permeable cell culture plate at a density of 1.5×10^5 cells/mL (5.0×10^5cells/cm^2).
# Culture wells were assigned to one of two treatment groups, transient or continuous activation. For transient activation, anti-CD3/anti-CD28 paramagnetic beads (Dyanbeads™) were added to the culture media at a ratio of 1 bead per cell starting on culture day 0, and then were removed during media exchange on day 2. […]
# Cell counts and viability were monitored every other day. […]
# [5] = tested on: T-cells from three healthy donors; assay: Post-stimulation CD4+ and CD8+ activation markers, flow cytometry; format: cell-based, human; conditions: 50 ng/mL OKT3, compared to culture in the absence of OKT3
# Description: Specific markers of activation on the CD4+ and CD8+ cell populations were measured using flow cytometry over a time course of 3-48 hours. Specifically, the following markers were assessed: CD38 and CD39 (FIG. 12A and FIG. 13A), CD134 and CD137 (FIG. 12B and FIG. 13B), and CD69 and CD90 (FIG. 12C and FIG. 13C).
# [6] = tested on: cells processed from melanoma tumor fragments; assay: Anti-CD3 stimulation on expansion of tumor-derived cells; format: cell-based, human
# Description: Cells processed from melanoma tumor fragments as described in Examples 1 and 2, were cultured in the presence or absence of 50 ng/mL OKT3, a human anti-CD3 monoclonal antibody. Cell cultures were carried out to between 14 and 31 days in either a conventional 6-well plate or a gas permeable culture plate with RPMI or OpTmizer media. […] About 50% of cellular media was exchanged every other day beginning on the 5th day of culture as described previously. Cells were then counted using the NC-200 Automated Cell Counter (Chemometec).
# [7] = tested on: PBMC from two healthy donors; assay: Checkpoint modulators and costimulatory agonist antibodies on T cell phenotype, flow cytometry; format: cell-based, human; conditions: 0.5, 1, 10, or 20 μg/mL; 50 ng/ml OKT3; 48 hours
# Description: Cells were then seeded into a 24-well gas permeable cell culture plate at a density of 5.0×10^5 cells/cm^2. Cells were activated for 48 hours using 50 ng/ml OKT3, a human anti-CD3 monoclonal antibody, and were additionally treated with agents as described below. Following 48 hours in culture, cells were analyzed for phenotype.
# Cells were divided into 6 treatment groups, as follows: Ipilimumab (anti-CTLA4), Pembrolizumab (anti-PD1), Tavolixizumab (anti-TNFRSF4), Urelumab (anti-CD137), and Varlilumab (anti-CD27), as well as a no added agent control. For all test groups, cells in each treatment group were cultured in the presence of the monoclonal antibodies at 0.5, 1, 10, or 20 μg/mL.
# None of the tested antibodies appeared to affect the memory differentiation state of the T cells. T cell phenotype was assessed for CD4+and CD8+cells independently via flow cytometry for markers of activation OX40, 41BB, CD107a, and PD1. Results are shown in FIG. 38 (CD3+), FIG. 39 (CD4+) and FIG. 40 (CD8+). Higher concentrations of Varlilumab, an agonist anti-CD27 antibody, promoted 41BB and CD107a expression on CD3+ T cells (FIG. 38B and 38C), CD4+ T cells (FIG. 39B and 39C) and CD8+ T cells (FIGS. 40B and 40C). Urelumab, an agonist CD137 receptor antibody, promoted 41BB expression on CD4 T cells (FIG. 39B) and CD8+ T cells (FIG. 40B). Pembrolizumab, an anti-PD-1 antagonist, decreased PD1 expression on CD4 T cells (FIG. 39D)
# [8] = presence versus absence of 50 ng/mL OKT3, 14 to 31 days
compound,measurement,setting,value
"COC(=O)C[C@H](NC(=O)[C@H](C)NC(=O)[C@@H](NC(=O)OCc1ccccc1)C(C)C)C(=O)CF [Z-VAD-FMK, carbobenzoxy-valyl-alanyl-aspartyl-[O-methyl]-fluoromethylketone] (Cbz-Val-Ala-Asp(OMe)-CH2F)",cell growth (total cell number),[1],greatest cell growth across donors
same,cell growth (total cell number),[1]; listed as caspase inhibition,superior growth
same,total viable CD3+ cell count compared with DMSO treatment control,[2],consistently higher viable cell counts than the DMSO treatment control
same,outgrowth of T cells,[3]; SCS conditions,outgrowth of T cells was not observed
same,cell viability,"[3]; SCS culture, 2 μM replenished at each media exchange",similarly high
same,cell viability,"[3]; tumor fragment-derived culture, 2 μM replenished at each media exchange",high
same,"outgrowth of cells (fold expansion, total viable cells)","[3]; tumor fragment-derived culture, 2 μM replenished at each media exchange, minimum 18 days",outgrowth of cells was superior
same,total viable cell number and viability versus other conditions,[4]; caspase inhibitor continuously,outperformed the other conditions
same,total viable cell number and viability versus other conditions,[4]; caspase inhibitor transiently (day 0 only),outperformed the other conditions
IL-15: recombinant cytokine tested as T cell adjuvant,"dose response, cell number",[2]; 62.5 IU/ml-1000 IU/ml,cell number increased with increasing concentration
OKT3: human anti-CD3 monoclonal antibody,"upregulation of activation markers (CD38, CD39, CD134, CD137, CD69, CD90) on CD8+ T cells",[5]; 48 hours following stimulation,all assessed markers were upregulated to some extent
same,"upregulation of activation markers (CD38, CD39, CD134, CD137, CD69, CD90) on CD4+ T cells",[5]; first 48 hours following stimulation,all assessed markers were upregulated to some extent
same,T cell expansion,"[6]; 50 ng/mL OKT3, 14 to 31 days, 300 or 6000 IU/mL IL-2",supported T cell expansion
same,fold expansion,"[6]; donor 6, all conditions, presence or absence of anti-CD3 stimulation",2-4 fold
same,fold expansion,[6]; [8],largely similar; also recorded: did not substantially impact
same,total cell number,[6]; [8],largely similar; also recorded: did not substantially impact
Oxelumab: anti-OX40L antibody,total viable CD3+ cell count compared with DMSO treatment control,[2],consistently higher viable cell counts than the DMSO treatment control
Pembrolizumab: anti-PD1 antibody,total viable CD3+ cell count compared with DMSO treatment control,[2],consistently higher viable cell counts than the DMSO treatment control
same,PD1 expression on CD4 T cells,[7],decreased
Urelumab: agonist CD137 receptor antibody,41BB expression on CD4+ T cells,[7],promoted
same,41BB expression on CD8+ T cells,[7],promoted
Varlilumab: agonist anti-CD27 antibody,41BB expression on CD3+ T cells,[7],promoted
same,41BB expression on CD4+ T cells,[7],promoted
same,41BB expression on CD8+ T cells,[7],promoted
same,CD107a expression on CD3+ T cells,[7],promoted
same,CD107a expression on CD4+ T cells,[7],promoted
same,CD107a expression on CD8+ T cells,[7],promoted
